Reference: patent publication US7109197B2, “N-phenyl-4-(4-pyridyl)-2-pyrimidineamine derivatives” (Syngenta Crop Protection, Inc., priority 2000, dated 2006)
Like-named read-outs stand apart in the source and are kept apart here.

Legend:
[1] = system: Puccinia graminis; format: in vivo
[2] = system: Phytophthora infestans; format: in vivo
[3] = Puccinia graminis on wheat cv. Arina, 0.02% active substance spray (residual) or 0.002% soil (systemic), variant not stated

SMILES | B1 activity [1, 3] | B1 activity ([1]; in vivo) | further results
Clc1cccc(Nc2nccc(-c3ccnc(NC4CCOC4)c3)n2)c1 (centres unmarked) [Compound 2] | + (the activity observed in the corresponding test system is 70% or more) |  | 
CCC(CO)Nc1cc(-c2ccnc(Nc3cccc(Cl)c3)n2)ccn1 (centres unmarked) [Compound 31] | + (the activity observed in the corresponding test system is 70% or more) |  | B2 activity ([2]; Phytophthora infestans on tomato cv. Roter Gnom, 0.02% active substance spray (residual) or 0.002% soil (systemic), variant not stated): + (the activity observed in the corresponding test system is 70% or more)
CC(CO)Nc1cc(-c2ccnc(Nc3cccc(Cl)c3)n2)ccn1 (centres unmarked) [Compound 39] | + (the activity observed in the corresponding test system is 70% or more) |  | 
OCCCNc1cc(-c2ccnc(Nc3cccc(Cl)c3)n2)ccn1 [Compound 46] | + (the activity observed in the corresponding test system is 70% or more) |  | 
Nc1cc(-c2ccnc(Nc3cccc(Cl)c3)n2)ccn1 [Compound 58] |  | + (key: +: the activity observed in the corresponding test system is 70% or more) | 
CCNc1cc(-c2ccnc(Nc3cccc(Cl)c3)n2)ccn1 [Compound 60] |  | + (key: +: the activity observed in the corresponding test system is 70% or more) | 
CNc1cc(-c2ccnc(Nc3cccc(Cl)c3)n2)ccn1 [Compound 64] |  |  | B2 activity ([2]; in vivo): + (key: +: the activity observed in the corresponding test system is 70% or more)
CC(C)Nc1cc(-c2ccnc(Nc3cccc(Cl)c3)n2)ccn1 [Compound 68] |  | + (key: +: the activity observed in the corresponding test system is 70% or more) | 
Clc1cccc(Nc2nccc(-c3ccnc(NCC4CCCO4)c3)n2)c1 (centres unmarked) [Compound 75] | + (the activity observed in the corresponding test system is 70% or more) |  | 
Clc1cccc(Nc2nccc(-c3ccnc(NCCCOc4ncccn4)c3)n2)c1 [Compound 94] | + (the activity observed in the corresponding test system is 70% or more) |  | 
